Laboratory results as given in patent publication US11466044B2 (WAYNE STATE UNIVERSITY, priority 2017, dated 2022).
Converted amounts (≈) assume the structure as drawn. Where two headings read alike, the source gives them in different places.

Assays:
P aeruginosa = experiment: MIC by broth microdilution, P aeruginosa isolates; assay type: cell-based, Pseudomonas aeruginosa; settings: for MIC50: Pseudomonas aeruginosa
[1] = tested on: Enterobacter cloacae AG290; experiment: MIC by broth microdilution, Enterobacter cloacae; assay type: cell-based; settings: strain AG290 Enterobacter cloacae; read-out: MIC AG290 E. cloacae
MRSA = experiment: MIC by broth microdilution, MRSA isolates; assay type: cell-based
[2] = tested on: Acinetobacter baumannii pittii AG225; experiment: MIC by broth microdilution, Acinetobacter baumannii; assay type: cell-based; settings: strain AG225 Acinetobacter baumannii pittii
[3] = tested on: E coli carrying specific resistance determinants; experiment: MIC by broth microdilution, E coli carrying specific resistance determinants; assay type: cell-based; settings: for MIC50 / MIC: Escherichia coli
M. smegmatis SZ380 = experiment: MIC by broth microdilution, M. smegmatis; settings: for MIC SZ380 M. smegmatis: strain SZ380 Mycobacterium smegmatis
[4] = tested on: wild type bacterial ribosomes; experiment: in-vitro translation assay, bacterial ribosomes; assay type: biochemical; settings: bacterial ribosome; Table 3 (Example 2); read-out: IC50 Bac
Source text: (§1) The antiribosomal activity of these compounds was investigated with cell-free translation assays using both wild type bacterial ribosomes and hybrid ribosomes carrying eukaryotic decoding A sites enabling the prediction of selectivity.

E coli wild type = experiment: MIC by broth microdilution, wild type E coli; assay type: cell-based
[5] = tested on: cytosolic ribosome (human chimeric); assay type: biochemical
Source text: as §1

[6] = tested on: mitochondrial ribosome (human chimeric); assay type: biochemical
Source text: as §1

[7] = tested on: Klebsiella pneumonia AG215; experiment: MIC by broth microdilution, Klebsiella pneumonia; assay type: cell-based; settings: strain AG215 Klebsiella pneumonia
[8] = tested on: A1555G mutant mitochondrial ribosome (human chimeric); experiment: in-vitro translation assay, human chimeric ribosomes, A1555G mutant mitochondrial decoding site; assay type: biochemical; settings: Table 3 (Example 3)
Source text: as §1

CC1CC(N)C2O[C@H](O[C@@H]3C(N)C[C@@H](N)C(O)[C@H]3O[C@@H]3O[C@H](CO)[C@H](O[C@H]4O[C@@H](CN)[C@@H](O)C(O)C4N)C3O)C(N)[C@@H](O)[C@@H]2O1 (stereo partly drawn) [Compound 139, 4-O-(2′,6′-Diamino-4′,8′-anhydro-2′,6′,7′,9′-tetradeoxy-D-threo-α-D-gluco-nonapyranosyl)-5-O-(β-paramobiosyl)-2-deoxystreptamine.6AcOH]
MIC50 (P aeruginosa; strain AG33, Table 1 (Example 2), read-out: MIC50 P aeruginosa AG33): 128 µg/mL (≈ 196 µM)
MIC50 (P aeruginosa; strain AG86, Table 1 (Example 2), read-out: MIC50 P aeruginosa AG86): 128 µg/mL (≈ 196 µM)
MIC50 P aeruginosa AG31 (P aeruginosa; strain AG31, Table 1 (Example 2)): 32 µg/mL (≈ 48.9 µM)
MIC50 P aeruginosa AG32 (P aeruginosa; strain AG32, Table 1 (Example 2)): 32 µg/mL (≈ 48.9 µM)
MIC (P aeruginosa; strain AG220 Pseudomonas aeruginosa ATCC27853, read-out: MIC AG220 P. aerugin): 16 to 32 µg/mL (≈ 24.4 to 48.9 µM)
MIC [1]: 1 µg/mL (≈ 1.53 µM)
MIC50 MRSA AG38 (MRSA; strain AG38, Table 1 (Example 2)): 4 µg/mL (≈ 6.11 µM)
MIC50 MRSA AG39 (MRSA; strain AG39, Table 1 (Example 2)): 4 µg/mL (≈ 6.11 µM)
MIC50 MRSA AG42 (MRSA; strain AG42, Table 1 (Example 2)): 2 µg/mL (≈ 3.05 µM)
MIC50 MRSA AG44 (MRSA; strain AG44, Table 1 (Example 2)): 2 µg/mL (≈ 3.05 µM)
MIC [2]: 4 µg/mL (≈ 6.11 µM)
MIC50 ([3]; read-out: MIC50 E coli AG07 AAC(3), AG07 AAC(3), Table 2A (Example 2)): 4 µg/mL (≈ 6.11 µM)
MIC50 ([3]; read-out: MIC50 E coli AG09 AAC(6′), AG09 AAC(6′), Table 2A (Example 2)): 2 µg/mL (≈ 3.05 µM)
MIC50 ([3]; read-out: MIC50 E coli AG036 ANT(4′,4″), AG036 ANT(4′,4″), Table 2A (Example 2)): 2 µg/mL (≈ 3.05 µM)
MIC50 ([3]; read-out: MIC50 E coli AG036 ANT(4′,4″), AG036 ANT(4′,4″), Table 2B (Example 2)): 0.25 µg/mL (≈ 0.382 µM)
MIC50 ([3]; read-out: MIC50 E coli AG037 APH(3′)-III, AG037 APH(3′)-III, Table 2B (Example 2)): 8 to 16 µg/mL (≈ 12.2 to 24.4 µM)
MIC50 ([3]; read-out: MIC50 E coli AG037 APH(3′,5″), AG037 APH(3′,5″), Table 2A (Example 2)): 32 to 64 µg/mL (≈ 48.9 to 97.8 µM)
MIC50 ([3]; read-out: MIC50 E coli AG103 ArmA, AG103 ArmA, Table 2A (Example 2)): 2 µg/mL (≈ 3.05 µM)
MIC50 ([3]; read-out: MIC50 E coli AG103 armA, AG103 armA, Table 2B (Example 2)): 0.5 µg/mL (≈ 0.764 µM)
MIC50 ([3]; read-out: MIC50 E coli AG105 AAC(2′), AG105 AAC(2′), Table 2A (Example 2)): 2 to 4 µg/mL (≈ 3.05 to 6.11 µM)
MIC50 ([3]; read-out: MIC50 E coli pH414 AAC(6′)-I, pH414 AAC(6′)-I, Table 2B (Example 2)): 1 µg/mL (≈ 1.53 µM)
MIC50 ([3]; read-out: MIC50 E coli pH415 AAC(6′)-II, pH415 AAC(6′)-II, Table 2B (Example 2)): 1 µg/mL (≈ 1.53 µM)
MIC50 ([3]; read-out: MIC50 E coli pH421 APH(3′)-I, pH421 APH(3′)-I, Table 2B (Example 2)): > 32 µg/mL
MIC50 ([3]; read-out: MIC50 E coli pH422 APH(3′)-II, pH422 APH(3′)-II, Table 2B (Example 2)): 8 µg/mL (≈ 12.2 µM)
MIC50 ([3]; read-out: MIC50 E coli pH423 APH(3)-VI, pH423 APH(3)-VI, Table 2B (Example 2)): 1 to 2 µg/mL (≈ 1.53 to 3.05 µM)
MIC50 ([3]; read-out: MIC50 E coli pH432 ANT(4′), pH432 ANT(4′), Table 2B (Example 2)): 1 µg/mL (≈ 1.53 µM)
MIC ([3]; read-out: MIC AAC(6′)): 1 µg/mL (≈ 1.53 µM)
MIC ([3]; read-out: MIC ANT(4′)): 0.25 µg/mL (≈ 0.382 µM)
MIC ([3]; read-out: MIC APH(3′)-II): 8 µg/mL (≈ 12.2 µM)
MIC ([3]; read-out: MIC APH(3′)-VI): 1 to 2 µg/mL (≈ 1.53 to 3.05 µM)
MIC SZ380 M. smegmatis (M. smegmatis SZ380): 1 to 2 µg/mL
IC50 [4]: 120 nM
MIC50 E coli BM13 (AG06) wt (E coli wild type; BM13 (AG06) wt, Table 2A (Example 2)): 1 to 2 µg/mL
MIC (E coli wild type; Escherichia coli, ATCC25922, strain AG212 E. coli (ATCC25922), read-out: MIC AG212 E. coli): 1 µg/mL (≈ 1.53 µM)
MIC WT (E coli wild type; WT, Table 3 (Example 2)): 0.5 to 1 µg/mL
MIC50 E coli pH430 WT (E coli wild type; pH430 WT, Table 2B (Example 2)): 0.5-1 μg/ml
MIC50 E coli AG01 (E coli wild type; strain AG01, Table 1 (Example 2)): 2 µg/mL (≈ 3.05 µM)
MIC50 E coli AG03 (E coli wild type; strain AG03, Table 1 (Example 2)): 2 µg/mL (≈ 3.05 µM)
MIC50 E coli AG55 (E coli wild type; strain AG55, Table 1 (Example 2)): 2 µg/mL (≈ 3.05 µM)
IC50 ([5]; cytosolic, Table 3 (Example 2), read-out: IC50 Cyt): 19000 nM
IC50 ([6]; mitochondrial, Table 3 (Example 2), read-out: IC50 Mit): 2300 nM
MIC ([7]; Klebsiella pneumoniae, read-out: MIC AG215 K. pneumon): 0.5 to 1 µg/mL (≈ 0.764 to 1.53 µM)

CC(=O)O.NCC(=O)NC1C(OC2C(N)CC(N)C(O)C2OC2OC(CO)C(OC3OC(CN)C(O)C(O)C3N)C2O)OC(CN)C(O)C1O (stereo not shown) [Compound 175, 2′-N-(2-Aminoacetyl)-neomycin acetate salt]
MIC AG220 P. aerugin (P aeruginosa; strain AG220 Pseudomonas aeruginosa ATCC27853): >32 µg/mL
MIC MRSA AG038 (MRSA; clinical isolate AG038, Table 1 (Example 3)): 4 µg/mL
MIC MRSA AG039 (MRSA; clinical isolate AG039, Table 1 (Example 3)): >32 µg/mL
MIC MRSA AG042 (MRSA; clinical isolate AG042, Table 1 (Example 3)): >32 µg/mL
Selectivity for Binding to the Bacterial Ribosome over the Mutant Mitochondrial Ribosome [8]: 153
MIC AG225 A. baumannii [2]: 8 to 16 µg/mL
MIC E. coli AG106 AAC(2′)-Ia ([3]; AG106 AAC(2′)-Ia, Table 5 (Example 3)): 16 to 32 µg/mL
MIC E coli AG106 AAC(2′) ([3]; AG106 AAC(2′), Table 2 (Example 3)): 16 to 32 µg/mL
MIC E. coli pGB2armA armA ([3]; pGB2armA armA, Table 5 (Example 3)): 16 μg/ml
MIC M. smegmatis SZ380 WT (M. smegmatis SZ380; SZ380 WT, Table 5 (Example 3)): 0.25 µg/mL
MIC SZ380 M. smegmatis (M. smegmatis SZ380): 0.25 µg/mL
MIC E coli AG006 Wild type (E coli wild type; AG006 Wild type, Table 2 (Example 3)): 8 µg/mL
MIC E coli AG104 Wild type (E coli wild type; AG104 Wild type, Table 2 (Example 3)): 16 µg/mL
antibacterial activity, in words (E coli wild type; MRSA and E coli, compared with the parent compound): very substantial loss of activity
MIC E. coli WT (E coli wild type; WT, Table 5 (Example 3)): 8 to 16 µg/mL
MIC E coli AG001 (E coli wild type; clinical isolate AG001, Table 1 (Example 3)): 16 µg/mL
MIC E coli AG003 (E coli wild type; clinical isolate AG003, Table 1 (Example 3)): 32 µg/mL
MIC E coli AG055 (E coli wild type; clinical isolate AG055, Table 1 (Example 3)): 16 µg/mL
MIC AG212 E. coli (E coli wild type; strain AG212 E. coli (ATCC25922)): 16 µg/mL
Selectivity for Binding to the Bacterial Ribosome over the Cytosolic Ribosome ([5]; Table 3 (Example 3)): 155
Selectivity for Binding to the Bacterial Ribosome over the Mitochondrial Ribosome ([6]; Table 3 (Example 3)): 67
MIC AG215 K. pneumon [7]: 8 µg/mL
